Data from patent US8445005B2, “Antiwrinkle agent, lipolysis promoter, external composition for skin and food and beverage composition” (Kao Corporation, priority 2004, dated 2013).

Key:
Mouse 3T3-L1 cells = test: Lipolysis promoting effect: glycerol release from mature adipocytes; format: cell-based; settings: test concentration 0.10% by mass; 90 minutes; norepinephrine 3×10^−8 mol/L; control = 100
Method: Mouse 3T3-L1 cells purchased from Dainippon Pharmaceutical Co., Ltd. were cultured in a 24-well culture plate according to the method of […], et al. ([…]. et al., Biochim. Biophys. Acta., 1581: 36-48 (2002)) at 37° C. in a 5% (v/v) CO2 atmosphere, and these cells were used in the test as mature adipocytes. Test media were prepared by adding test samples at predetermined concentrations to DMEM medium containing bovine serum albumin and norepinephrine (final concentration: 3×10^-8 mol/L). The said mature adipocytes were cultured in the test media for 90 minutes to be reacted with the test samples. Following the reaction, the glycerol released into the media was quantified by […] using the F Kit Glycerol (Roche). The lipolysis promotion rate was calculated according to the equation below based on the quantified glycerol values to serve as an indicator of lipolysis promoting effect: Lipolysis promotion rate(%)=[A/B]×100 (wherein A represents the amount of glycerol with addition of test sample, and B represents the amount of glycerol of a control (without addition of test sample)). (Test Results) […] Zingerone and caffeine were used as comparative controls.

photoaged skin = test: Wrinkle ameliorative effect: wrinkle score in photo-aged hairless mice; format: in vivo; settings: Results 1; 1.0% sample in 50% aqueous ethanol, 0.1 ml once a day, five times a week on dorsal skin; score 0-3; base only 2.65 ± 0.08; listed as Example 2
Method: Samples containing 1.0% each of the guinea ginger extract, paradol or acetylated guinea ginger extract obtained in Production Examples 1 to 3 were prepared, using a 50% aqueous ethanol solution for the base (Example 1, 2 or 3, respectively), and wrinkle ameliorative effects on photoaged skin were investigated using the test method described below. Hairless mice, 10 weeks old at the start of the test, were used in groups of 10 animals each. Photo-aging was induced by irradiating skin with UVA and UVB once a day, five times a week for eight weeks. The irradiated doses were 20, 25 and 30 J/cm^2 for UVA and 20, 30 and 40 mJ/cm^2 for UVB. The doses were elevated every week, and the skin was irradiated at the maximum doses after the third week. Wrinkle ameliorative effect was evaluated using a wrinkle score and a dermal collagen level. The wrinkle score was determined according to the method of Bissett, et al. (Photochem. Photobiol., 46: 367-378, 1987). Namely, the size and depth of wrinkles were comprehensively evaluated macroscopically, and evaluated according to one of four levels consisting of a score of 3 for “large, deep wrinkles able to be confirmed”, 2 for “wrinkles able to be confirmed”, 1 for “wrinkles unable to be confirmed” and 0 for “normal skin texture observed”. […] Wrinkle scores were then determined following completion of the final application. […]

| SMILES | Lipolysis promotion rate (%) (mean ± SE) (Mouse 3T3-L1 cells) | Wrinkle Score (mean ± SE) (photoaged skin) |
| --- | --- | --- |
| CCCCCCCC(=O)CCc1ccc(O)c(OC)c1 [Paradol, 1-(4′-hydroxy-3′-methoxyphenyl)-3-decanone] | 554.68 ± 107.62 | 2.40 ± 0.23 |
| Cn1c(=O)c2c(ncn2C)n(C)c1=O [Caffeine] | 234.93 ± 11.23 |  |
| COc1cc(CCC(C)=O)ccc1O [Zingerone] | 191.85 ± 69.83 |  |
